One experiment addresses T1, ERK2 (Homo sapiens, UniProt P28482).
T1 construct: made in house
In words: ERK2 Rapidfire Mass Spectrometry Inhibition of Catalysis Assay. Format: biochemical. To be noted: 1.2 nM ERK2, 16 μM Erktide, 120 μM ATP (measured Km), 15 minute pre-incubation; read-out: ERK2 Mass Spectrometry Enzyme IC50. The procedure:
(§1) All compounds or DMSO (dimethyl sulphoxide) for the ERK2 Mass Spectrometry and A375 phospho-p90RSK assays were dispensed from source plates containing compounds at 10 mM in 100% (v/v) DMSO or 100% DMSO, directly into assay plates using an Echo 555 Acoustic dispenser (Labcyte Inc™). Depending on the assay, two separate plate preparations were followed. In Workflow A, 10 mM compound stocks were diluted 1:100 using a fixed-tip 96-head Agilent VPrep liquid handler (Agilent Technologies, Santa Clara, Calif.) to give four intermediate dilutions (10 mM, 100 μM, 1 μM, 10 nM). In Workflow B, 10 mM compound stocks were diluted 1:10 using a Tecan Freedom Evo (Tecan Group Ltd., Switzerland), and then 1:100 using the Echo 555 and Labcyte LX to produce three intermediate dilutions across three Labcyte qualified source plates (1 mM, 10 μM, 100 nM). These intermediate dilution plates were then used by the Echo 555 to generate final assay-ready compound plates with a 12 point dose range (10, 3, 1, 0.25, 0.1, 0.03, 0.01, 0.0025, 0.001, 0.0003, 0.0001, 0.0000125 μM) in order to calculate compound IC50s, with a total DMSO concentration in the assay of 1%. For the ERK2 Mass Spectrometry assay Workflow B was used. For the A375 phospho-p90RSK cell assay, the intermediate 1:100 dilution plate described in Workflow A was used by the Echo to dispense compounds and DMSO directly into the cell plates with a 12 point dose range (30, 10, 3.125, 1.25, 0.3, 0.1, 0.03125, 0.0125, 0.003, 0.001, 0.0003125, 0.00003 μM) in order to calculate compound IC50's, with a total DMSO concentration in the assay of 0.3%.
ERK2 Rapidfire Mass Spectrometry Inhibition of Catalysis Assay
MEK U911-activated ERK2 protein was expressed and purified in-house. Enzyme and substrate solutions were made up in assay buffer consisting of 50 mM Tris (pH 7.5), 10 mM MgCl2, 0.1 mM EGTA (ethylene glycol tetraacetic acid), 10 mM DTT (dithiothreitol) and 0.01% (v/v) CHAPS (3-[(3-Cholamidopropyl)dimethylammonio]-1-propanesulfonate). 1.2 nM ERK2 protein was prepared in assay buffer and 10 μl was dispensed into each well of a polypropylene, 384-well plate (#781201, Greiner) containing test and reference control compounds. […] The reaction was allowed to progress for 20 minutes at room temperature before being quenched by the addition of 80 al 1% (v/v) formic acid. The assay plates were then run on the RapidFire Mass Spectrometry platform (Agilent) to measure substrate (unphosphorylated Erktide) and product (phosphorylated Erktide) levels. Data was analysed and IC50's (half maximal inhibitory concentration) were calculated using Genedata Screener® software.

Experiment [1] relates to phospho-p90RSK in A375 cell line. In words: A375 Phospho-p90RSK Cellular Assay. Format: cell-based, human. To be noted: Homo sapiens, A375 cells, 2 hours incubation. The procedure:
as §1
A375 Phospho-p90RSK Cellular Assay
A375 cells were cultured in cell media composed of DMEM (Dulbecco's modified Eagle's medium), 10% (v/v) Foetal Calf Serum and 1% (v/v) L-Glutamine. After harvesting, cells were dispensed into black, 384-well Costar plates (#3712, Corning) to give 2400 cells per well in a total volume of 40 μl cell media, and were incubated overnight at 37° C., 90% relative humidity and 5% CO2 in a rotating incubator. Test compounds and reference controls were dosed directly into the cell plates using a Labcyte Echo 555 acoustic dispenser. The cell plates were then incubated for 2 hours at 37° C. before being fixed by the addition of 20 μl 12% formaldehyde in PBS/A (4% final concentration), followed by a 20 minute room temperature incubation, and then a 2× wash with 150 μl PBS/A (phosphate buffered saline containing albumin) using a BioTek ELx405 platewasher. Cells were permeabilised with 20 μl 0.1% Triton X-100 in PBS/A for 20 minutes at room temperature, and then washed 1× with 100 μl PBS/A. Primary phospho-p90RSK (Thr359) (D1E9) rabbit monoclonal antibody (#8753, Cell Signaling Technology) was diluted 1:1000 in assay buffer (0.05% (v/v) Tween, 5% (v/v) Foetal Calf Serum, in PBS/A), 20 μl added per well, and plates were incubated at 4° C. overnight. Cell plates were washed 2× with 200 μl PBS/T (phosphate buffered saline containing Tween-20), then 20 μl 1:500 dilution in assay buffer of Alexa Fluor® 647 goat anti-rabbit IgG secondary antibody (#A31573, Molecular Probes, Life Technologies), with a 1:5000 dilution of Hoechst 33342, was added per well. Following a 90 minute incubation at room temperature, plates were washed 2× with 200 μl PBS/T, and 40 μl PBS/A was added per well. Stained cell plates were covered with black lid seals, and then read on a Cellomics ArrayScan™ VTI imaging platform (Thermo Scientific), using an XF53 filter with 10× objective, with a LED light source set-up to analyse nuclear staining with Hoechst 33342 (405 nm) and secondary antibody staining of phospho-p90RSK (647 nm). Data was analysed and IC50's were calculated using Genedata Screener® software.

These results are taken from US10202391B2, “Chemical compounds” (AstraZeneca AB, priority 2015, dated 2019).

T1 sequence (P28482 whole entry): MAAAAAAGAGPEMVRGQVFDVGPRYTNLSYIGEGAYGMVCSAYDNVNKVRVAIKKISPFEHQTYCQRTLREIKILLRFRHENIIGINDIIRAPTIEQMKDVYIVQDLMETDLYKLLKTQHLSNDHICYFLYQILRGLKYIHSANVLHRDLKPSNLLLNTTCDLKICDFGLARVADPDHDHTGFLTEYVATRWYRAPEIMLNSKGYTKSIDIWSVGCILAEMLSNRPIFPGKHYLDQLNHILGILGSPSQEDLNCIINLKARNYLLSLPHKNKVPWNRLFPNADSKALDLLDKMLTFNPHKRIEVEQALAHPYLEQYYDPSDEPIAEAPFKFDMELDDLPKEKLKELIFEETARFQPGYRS

In the case of `Cc1cccc(CN2CCn3cc(-c4ccnc(Nc5ccnn5C)n4)nc3C2=O)n1` [Example 1, 2-(2-((1-Methyl-1H-pyrazol-5-yl)amino)pyrimidin-4-yl)-7-((6-methylpyridin-2-yl)methyl)-6,7-dihydroimidazo[1,2-a]pyrazin-8(5H)-one], the results for the IC50 (at ERK2; in experiment [1] (A-375)) were 17.4 nM and 17000 nM, respectively.

On to `C[C@H]1Cn2cc(-c3ccnc(Nc4ccnn4C)n3)nc2C(=O)N1Cc1cccc(Cl)c1` [Example 2, (S)-7-(3-Chlorobenzyl)-6-methyl-2-(2-((1-methyl-1H-pyrazol-5-yl)amino)pyrimidin-4-yl)-6,7-dihydroimidazo[1,2-a]pyrazin-8(5H)-one], for which the IC50 at ERK2 is 0.7 nM; in experiment [1] (A-375), 86 nM.

For `C[C@H]1Cn2cc(-c3ccnc(Nc4ccnn4C)n3)nc2C(=O)N1Cc1ccc(F)c(Cl)c1` [Example 3, (S)-7-(3-Chloro-4-fluorobenzyl)-6-methyl-2-(2-((1-methyl-1H-pyrazol-5-yl)amino)pyrimidin-4-yl)-6,7-dihydroimidazo[1,2-a]pyrazin-8(5H)-one], the IC50 at ERK2 turned out to be 0.5 nM; in experiment [1] (A-375), 81 nM.

In the case of `C[C@H]1Cn2cc(-c3ccnc(Nc4ccnn4C)n3)nc2C(=O)N1Cc1ccc(F)c(F)c1` [Example 4, (S)-7-(3,4-Difluorobenzyl)-6-methyl-2-(2-((1-methyl-1H-pyrazol-5-yl)amino)pyrimidin-4-yl)-6,7-dihydroimidazo[1,2-a]pyrazin-8(5H)-one], the IC50 at ERK2 is 1.8 nM; in experiment [1] (A-375) it was 630 nM.

Consider `Cc1cnc(Nc2ccnn2C)nc1-c1cn2c(n1)C(=O)N(Cc1cccc(C(F)(F)F)n1)CC2` [Example 5, 2-(5-Methyl-2-((1-methyl-1H-pyrazol-5-yl)amino)pyrimidin-4-yl)-7-((6-(trifluoromethyl)pyridin-2-yl)methyl)-6,7-dihydroimidazo[1,2-a]pyrazin-8(5H)-one], for which the IC50 on ERK2 was determined as 2 nM; in experiment [1] (A-375), 110 nM.

Consider `C[C@H]1Cn2cc(-c3nc(Nc4ccnn4C)ncc3Cl)nc2C(=O)N1Cc1ccc(F)c(F)c1` [Example 6, (S)-2-(5-Chloro-2-((1-methyl-1H-pyrazol-5-yl)amino)pyrimidin-4-yl)-7-(3,4-difluorobenzyl)-6-methyl-6,7-dihydroimidazo[1,2-a]pyrazin-8(5H)-one], for which the IC50 at ERK2 was 0.6 nM; in experiment [1] (A-375) it was 25 nM.

For the molecule `COc1cccc(CN2C(=O)c3nc(-c4nc(Nc5ccnn5C)ncc4Cl)cn3C[C@@H]2C)c1` [Example 7, (S)-2-(5-Chloro-2-((1-methyl-1H-pyrazol-5-yl)amino)pyrimidin-4-yl)-7-(3-methoxybenzyl)-6-methyl-6,7-dihydroimidazo[1,2-a]pyrazin-8(5H)-one], the IC50 at ERK2 was 0.5 nM; in experiment [1] (A-375), 38 nM.

For `C[C@H]1Cn2cc(-c3nc(Nc4ccnn4C)ncc3Cl)nc2C(=O)N1Cc1ccnc(C(F)(F)F)n1` [Example 8, (S)-2-(5-chloro-2-((1-methyl-1H-pyrazol-5-yl)amino)pyrimidin-4-yl)-6-methyl-7-((2-(trifluoromethyl)pyrimidin-4-yl)methyl)-6,7-dihydroimidazo[1,2-a]pyrazin-8(5H)-one], the IC50 was 1.1 nM on ERK2 and 210 nM in experiment [1] (A-375).

In the case of `C[C@H]1Cn2cc(-c3nc(Nc4ccnn4C)ncc3Cl)nc2C(=O)N1Cc1cccc(C(F)F)n1` [Example 9, (S)-2-(5-Chloro-2-((1-methyl-1H-pyrazol-5-yl)amino)pyrimidin-4-yl)-7-((6-(difluoromethyl)pyridin-2-yl)methyl)-6-methyl-6,7-dihydroimidazo[1,2-a]pyrazin-8(5H)-one], the figures for the IC50 (at ERK2; in experiment [1] (A-375)) were 0.5 nM and 190 nM, respectively.

In the case of `C[C@H]1Cn2cc(-c3nc(Nc4ccnn4C)ncc3Cl)nc2C(=O)N1Cc1cccc(C(F)(F)F)n1` [Example 10], the IC50 on ERK2 is 1.1 nM; in experiment [1] (A-375), 55 nM.

For `Cc1cccc(CN2C(=O)c3nc(-c4nc(Nc5ccnn5C)ncc4Cl)cn3C[C@@H]2C)n1` [Example 11, (S)-2-(5-chloro-2-((1-methyl-1H-pyrazol-5-yl)amino)pyrimidin-4-yl)-6-methyl-7-((6-methylpyridin-2-yl)methyl)-6,7-dihydroimidazo[1,2-a]pyrazin-8(5H)-one], the results for the IC50 (at ERK2; in experiment [1] (A-375)) were 0.8 nM and 150 nM, respectively.

Turning to `Cc1cnc(Nc2ccnn2C)nc1-c1cn2c(n1)C(=O)N(Cc1ccc(F)c(Cl)c1)CC2` [Example 12, 7-(3-Chloro-4-fluorobenzyl)-2-(5-methyl-2-((1-methyl-1H-pyrazol-5-yl)amino)pyrimidin-4-yl)-6,7-dihydroimidazo[1,2-a]pyrazin-8(5H)-one], the IC50 at ERK2 was 0.6 nM; in experiment [1] (A-375), 3 nM.

In the case of `Cc1cnc(Nc2ccnn2C)nc1-c1cn2c(n1)C(=O)N(Cc1cccc(Cl)c1)CC2` [Example 13, 7-(3-Chlorobenzyl)-2-(5-methyl-2-((1-methyl-1H-pyrazol-5-yl)amino)pyrimidin-4-yl)-6,7-dihydroimidazo[1,2-a]pyrazin-8(5H)-one], the half-inhibitory concentration (IC50) is 0.3 nM at ERK2 and 12 nM in experiment [1] (A-375, 2 h).

Take `Cc1cnc(Nc2ccnn2C)nc1-c1cn2c(n1)C(=O)N(Cc1cccc(C(F)F)c1)CC2` [Example 14, 7-(3-(Difluoromethyl)benzyl)-2-(5-methyl-2-((1-methyl-1H-pyrazol-5-yl)amino)pyrimidin-4-yl)-6,7-dihydroimidazo[1,2-a]pyrazin-8(5H)-one]: the IC50 on ERK2 stood at 0.3 nM; in experiment [1] (A-375) it was 24 nM.

For `Cc1cnc(Nc2ccnn2C)nc1-c1cn2c(n1)C(=O)N(Cc1cccc(C(F)F)n1)CC2` [Example 15, 7-((6-(Difluoromethyl)pyridin-2-yl)methyl)-2-(5-methyl-2-((1-methyl-1H-pyrazol-5-yl)amino)pyrimidin-4-yl)-6,7-dihydroimidazo[1,2-a]pyrazin-8(5H)-one], the IC50 on ERK2 amounted to 0.6 nM; in experiment [1] (A-375) it was 150 nM.

In turn, `COC[C@@H]1Cn2cc(-c3nc(Nc4ccnn4C)ncc3C)nc2C(=O)N1Cc1ccc(F)c(F)c1` [Example 35, Ethanesulfonic acid adduct of (S)-7-(3,4-difluorobenzyl)-6-(methoxymethyl)-2-(5-methyl-2-((1-methyl-1H-pyrazol-5-yl)amino)pyrimidin-4-yl)-6,7-dihydroimidazo[1,2-a]pyrazin-8(5H)-one] registered an IC50 in experiment [1] (A-375) of 93 nM.

The term IC50 denotes the concentration at which inhibition is half-maximal.
